Results reported in the NIST ThermoML archive (doi:10.1016/j.jct.2015.07.005).
“And” between values parts separate entries of the source, which are not always exact repeats. Equal entries are not always repeated.

Conditions: Gas, Frequency=0.005 MHz, Spherical cavity resonance method

C [methane]
Conditions | speed of sound
280.01 K, 500.03 kPa | 434.02 m/s and 434.03 m/s
280.01 K, 500.04 kPa | 434.03 m/s
280.01 K, 500.18 kPa | 434.03 m/s
280.02 K, 500.03 kPa | 434.03 m/s and 434.03 m/s
280.02 K, 500.04 kPa | 434.03 m/s and 434.02 m/s and 434.03 m/s
280.02 K, 500.18 kPa | 434.03 m/s
280.02 K, 500.19 kPa | 434.03 m/s and 434.03 m/s and 434.03 m/s
293.27 K, 394.31 kPa | 443.98 m/s and 443.97 m/s and 443.97 m/s
293.27 K, 394.32 kPa | 443.97 m/s and 443.97 m/s and 443.97 m/s
293.28 K, 394.32 kPa | 443.97 m/s [middle of 6 runs]
293.28 K, 394.33 kPa | 443.98 m/s and 443.98 m/s and 443.97 m/s
293.28 K, 394.34 kPa | 443.98 m/s
293.28 K, 394.35 kPa | 443.98 m/s and 443.98 m/s
293.29 K, 394.36 kPa | 443.98 m/s and 443.97 m/s
319.52 K, 429.9 kPa | 462.06 m/s
319.53 K, 429.91 kPa | 462.06 m/s
319.55 K, 428.61 kPa | 461.97 m/s and 461.97 m/s
319.87 K, 471.86 kPa | 462.12 m/s
319.87 K, 471.87 kPa | 462.12 m/s
319.88 K, 471.88 kPa | 462.12 m/s
319.88 K, 471.91 kPa | 462.13 m/s
319.89 K, 471.91 kPa | 462.13 m/s and 462.13 m/s
319.89 K, 471.92 kPa | 462.13 m/s
319.89 K, 471.93 kPa | 462.12 m/s and 462.13 m/s
319.94 K, 430.41 kPa | 462.32 m/s
319.94 K, 430.42 kPa | 462.32 m/s
319.95 K, 429.13 kPa | 462.24 m/s
319.96 K, 429.13 kPa | 462.24 m/s
339.35 K, 456 kPa | 474.76 m/s and 474.76 m/s
339.88 K, 456.67 kPa | 475.08 m/s
339.89 K, 456.67 kPa | 475.08 m/s
359.27 K, 481.98 kPa | 486.94 m/s
359.28 K, 480.58 kPa | 486.84 m/s
359.28 K, 481.81 kPa | 486.76 m/s
359.28 K, 481.99 kPa | 486.94 m/s
359.29 K, 480.58 kPa | 486.85 m/s
359.85 K, 482.79 kPa | 487.31 m/s
359.86 K, 482.59 kPa | 487.15 m/s
359.86 K, 482.79 kPa | 487.31 m/s
359.87 K, 482.6 kPa | 487.15 m/s
360.03 K, 529.63 kPa | 487.35 m/s
360.03 K, 529.64 kPa | 487.35 m/s and 487.35 m/s
360.03 K, 529.66 kPa | 487.35 m/s
360.04 K, 529.66 kPa | 487.34 m/s and 487.34 m/s
360.04 K, 529.67 kPa | 487.33 m/s and 487.33 m/s
379.2 K, 507.87 kPa | 498.66 m/s and 498.66 m/s
379.78 K, 508.56 kPa | 498.97 m/s and 498.98 m/s
399.24 K, 533.63 kPa | 510.01 m/s and 510.02 m/s
399.82 K, 534.48 kPa | 510.39 m/s and 510.39 m/s
399.99 K, 471.94 kPa | 510.49 m/s and 510.5 m/s and 510.49 m/s
399.99 K, 471.95 kPa | 510.47 m/s and 510.48 m/s
399.99 K, 471.96 kPa | 510.47 m/s
399.99 K, 471.97 kPa | 510.47 m/s
399.99 K, 471.98 kPa | 510.47 m/s
400 K, 471.96 kPa | 510.46 m/s
419.54 K, 559.42 kPa | 521.02 m/s
419.55 K, 559.43 kPa | 521.03 m/s
419.56 K, 559.63 kPa | 521.2 m/s and 521.2 m/s
419.99 K, 560 kPa | 521.28 m/s
420 K, 560.01 kPa | 521.28 m/s and 521.29 m/s
420.02 K, 560.19 kPa | 521.47 m/s
420.02 K, 560.2 kPa | 521.46 m/s
439.94 K, 496.85 kPa | 532.03 m/s
439.94 K, 496.86 kPa | 532.02 m/s and 532.03 m/s
439.94 K, 496.87 kPa | 532.02 m/s
439.94 K, 496.88 kPa | 532.01 m/s [middle of 5 runs]
449.69 K, 597.89 kPa | 537.24 m/s
449.69 K, 597.9 kPa | 537.24 m/s [middle of 6 runs]
449.7 K, 597.88 kPa | 537.22 m/s
449.7 K, 597.89 kPa | 537.22 m/s and 537.23 m/s
449.7 K, 597.9 kPa | 537.23 m/s and 537.24 m/s and 537.23 m/s
449.71 K, 597.88 kPa | 537.22 m/s and 537.21 m/s
449.71 K, 597.89 kPa | 537.22 m/s [middle of 5 runs]
449.72 K, 597.88 kPa | 537.2 m/s
449.72 K, 597.89 kPa | 537.21 m/s [middle of 4 runs]
449.73 K, 597.86 kPa | 537.19 m/s
449.73 K, 597.87 kPa | 537.2 m/s and 537.19 m/s and 537.19 m/s
449.74 K, 597.86 kPa | 537.19 m/s
449.74 K, 597.87 kPa | 537.2 m/s and 537.2 m/s
449.77 K, 597.88 kPa | 537.2 m/s and 537.2 m/s
449.78 K, 597.9 kPa | 537.2 m/s
449.79 K, 597.9 kPa | 537.2 m/s
479.91 K, 495.54 kPa | 552.38 m/s
479.92 K, 495.51 kPa | 552.4 m/s and 552.39 m/s
479.92 K, 495.52 kPa | 552.4 m/s
479.92 K, 495.54 kPa | 552.39 m/s
479.92 K, 495.55 kPa | 552.39 m/s
479.92 K, 495.57 kPa | 552.38 m/s and 552.39 m/s
479.92 K, 539.8 kPa | 552.38 m/s and 552.39 m/s
479.92 K, 539.81 kPa | 552.39 m/s
